Measured values: patent publication US11420943B2, “Peptide derivatives and therapeutic activity thereof” (FLAMMA S.P.A., priority 2017, dated 2022)
Like-named read-outs stand apart in the source and are kept apart here. Where a SMILES comes first, the peptide text is derived from it. [ ]: non-standard residue; d: D form. Aib = CC(C)(N)C(=O)O

Tests used:
[1] = reported in WO2011/080139, same test; cited from earlier work
[2] = Carbonyl-quenching activity towards HNE in vitro (residual HNE by reverse-phase chromatography); format: biochemical; conditions: for ACTIVITY (CARNOSINE UNIT) 1 h / HNE CONSUMPTION (%) 1 h: 1 h incubation; for ACTIVITY (CARNOSINE UNIT) 1 h / HNE CONSUMPTION (%) 1 h / ACTIVITY (CARNOSINE UNIT) 3 h / HNE CONSUMPTION (%) 3 h: HNE 50 μM, compound 1 mM, phosphate buffer 10 mM, pH 7.4, 37° C.; for ACTIVITY (CARNOSINE UNIT) 3 h / HNE CONSUMPTION (%) 3 h: 3 h incubation
Protocol: (§1) The pharmacological activity of the compounds according to the invention was determined in vitro by evaluating their carbonyl-quenching activity towards 4-hydroxy nonenal (HNE), which is known for its involvement in numerous disorders. Said activity was compared with that of L-carnosine, a compound known as a carbonyl quencher in vitro but having limited metabolic stability caused by serum carnosinase. The metabolic stability of a particularly interesting compound was also evaluated in human serum after 1 and 2 hours.
The activity was evaluated one and three hours after incubation, determining the residual HNE content by reverse-phase chromatography as previously described by Aldini G. et al. [Biochem Biophys Res Commun. 2002 Nov. 15; 298 (5):699-706]. The carbonyl-quenching activity is evaluated on the basis of the percentage of HNE reacted, compared with the HNE content in the absence of the molecule to be tested.

[3] = Stability in human serum (HPLC-MS recovery); format: in vitro ADME; conditions: 37° C.
Protocol: as §1
The samples taken from each matrix, suitably treated, were analysed by HPLC-MS, obtaining recovery after 1 h and 2 h.

Compound | carbonyl-quenching activity, times greater than that of L-carnosine [1] [times] | ACTIVITY (CARNOSINE UNIT) 1 h [2] [CARNOSINE UNIT] | HNE CONSUMPTION (%) 1 h [2] [%] | ACTIVITY (CARNOSINE UNIT) 3 h [2] [CARNOSINE UNIT] | HNE CONSUMPTION (%) 3 h [2] [%] | carbonyl-quenching activity, times greater than that of L-carnosine ([2]; see Table I) [times] | Stability in plasma (% residual amount) 1 h ([3]; 1 h) [%] | Stability in plasma (% residual amount) 2 h ([3]; 2 h) [%]
NCCC(=O)N[C@H](CO)Cc1cnc[nH]1 [3-amino-N-[(1S)-2-hydroxy-1-(1H-imidazol-5-yl-methyl)ethyl]propanamide] | 1.6 |  |  |  |  |  |  | 
NCCC(=O)N[C@@H](Cc1cnc[nH]1)C(=O)O [CARNOSINE, L-carnosine, reference compound] |  | 1.00 | 17.05 ± 1.24 | 1.00 | 42.66 ± 0.89 |  |  | 
CC(C)(N)CC(=O)N[C@@H](Cc1c[nH]cn1)C(=O)O [FLM-02-ACI, N-(3-amino-3,3-dimethylpropanoyl)-L-histidine] |  | 0.02 | 0.40 ± 1.73 | 0.14 | 6.05 ± 1.66 |  |  | 
CC(C)(N)CC(=O)N[C@H](CO)Cc1c[nH]cn1 [FLM-02-OLO, (S)-3-amino-N-(1-hydroxy-3-(1H-imidazol-4-yl)propan-2-yl)-3,3-dimethylpropanamide] |  | 0.25 | 4.09 ± 2.61 | 0.24 | 10.50 ± 2.24 |  |  | 
CC(C)(CN)C(=O)N[C@@H](Cc1c[nH]cn1)C(=O)O [FLM-04-ACI, N-(3-amino-2,2-dimethylpropanoyl)-L-histidine] |  | 1.76 | 30.06 ± 4.68 | 1.51 | 64.44 ± 4.37 |  |  | 
CC(C)(CN)C(=O)N[C@H](CO)Cc1c[nH]cn1 [FLM-04-OLO, (S)-3-amino-N-(1-hydroxy-3-(1H-imidazol-4-yl)propan-2-yl)-2,2-dimethylpropanamide] |  | 3.13 | 52.14 ± 5.56 | 2.00 | 86.47 ± 2.73 | 3.1 | 101.78 ± 16.20 | 100.34 ± 9.46
CC(C)(N)C(=O)N[C@@H](Cc1c[nH]cn1)C(=O)O [FLM-05-ACI, N-(2-amino-2-methylpropanoyl)-L-histidine] (H-[Aib]-His-OH) |  | 0.33 | 5.58 ± 7.50 | 0.37 | 15.84 ± 10.65 |  |  | 
CC(C)(N)C(=O)N[C@H](CO)Cc1c[nH]cn1 [FLM-05-OLO, (S)-2-amino-N-(1-hydroxy-3-(1H-imidazol-4-yl)propan-2-yl)-2-methylpropanamide] |  | 0.38 | 6.40 ± 1.72 | 0.45 | 19.44 ± 2.36 |  |  | 
NCC(F)(F)C(=O)N[C@@H](Cc1c[nH]cn1)C(=O)O [FLM-07-ACI, N-(3-amino-2,2-difluoropropanoyl)-L-histidine] |  | 0.46 | 7.88 ± 5.41 | 0.69 | 29.42 ± 6.42 |  |  | 
NCC(F)(F)C(=O)N[C@H](CO)Cc1c[nH]cn1 [FLM-07-OLO, (S)-3-amino-2,2-difluoro-N-(1-hydroxy-3-(1H-imidazol-4-yl)propan-2-yl)propanamide] |  | 1 | 17.07 ± 1.76 | 0.82 | 34.93 ± 0.58 |  |  | 
NCC1(C(=O)N[C@@H](Cc2c[nH]cn2)C(=O)O)CC1 [FLM-09-ACI] |  | 0.81 | 13.70 ± 0.83 | 0.89 | 36.11 ± 2.87 |  |  | 
NCC1(C(=O)N[C@H](CO)Cc2c[nH]cn2)CC1 [FLM-09-OLO, (S)-1-(aminomethyl)-N-(1-hydroxy-3-(1H-imidazol-4-yl)propan-2-yl)cyclopropanecarboxamide] |  | 1.55 | 26.21 ± 1.04 | 1.45 | 59.09 ± 1.49 |  |  | 
NCC1(C(=O)N[C@@H](Cc2c[nH]cn2)C(=O)O)CCC1 [FLM-10-ACI] |  | 1.06 | 17.89 ± 1.97 | 1.11 | 45.04 ± 2.94 |  |  | 
NCC1(C(=O)N[C@H](CO)Cc2c[nH]cn2)CCC1 [FLM-10-OLO, (S)-1-(aminomethyl)-N-(1-hydroxy-3-(1H-imidazol-4-yl)propan-2-yl)cyclobutanecarboxamide] |  | 2.82 | 47.68 ± 3.02 | 2.08 | 84.63 ± 2.70 |  |  | 
NCC1(C(=O)N[C@@H](Cc2c[nH]cn2)C(=O)O)CCCC1 [FLM-11-ACI] |  | 1.41 | 23.82 ± 1.55 | 1.31 | 53.54 ± 1.10 |  |  | 
NCC1(C(=O)N[C@H](CO)Cc2c[nH]cn2)CCCC1 [FLM-11-OLO, (S)-1-(aminomethyl)-N-(1-hydroxy-3-(1H-imidazol-4-yl)propan-2-yl)cyclopentanecarboxamide] |  | 2.82 | 47.56 ± 0.69 | 2.06 | 83.90 ± 0.33 |  |  | 
CC(C)(CN)C(=O)N[C@@H](Cc1c[nH]cn1)C(=O)O [FLM-12-ACI, N-(3-amino-2,2-dimethylpropanoyl)-L-histidine] |  | 1.58 | 27.07 ± 9.77 | 1.20 | 51.35 ± 9.22 |  |  | 
Cn1cncc1C[C@@H](CO)NC(=O)C(C)(C)CN [FLM-12-OLO, (S)-3-amino-N-(1-hydroxy-3-(1-methyl-1H-imidazol-5-yl)propan-2-yl)-2,2-dimethylpropanamide] |  | 2.98 | 50.77 ± 3.84 | 1.64 | 70.08 ± 2.98 |  |  | 
CC(C)(CCN)C(=O)N[C@@H](Cc1c[nH]cn1)C(=O)O [FLM-13-ACI, N-(4-amino-2,2-dimethylbutanoyl)-L-histidine] |  | 0.69 | 11.77 ± 6.79 | 0.48 | 20.43 ± 7.94 |  |  | 
CC(C)(CCN)C(=O)N[C@H](CO)Cc1c[nH]cn1 [FLM-13-OLO, (S)-4-amino-N-(1-hydroxy-3-(1H-imidazol-4-yl)propan-2-yl)-2,2-dimethylbutanamide] |  | 0.62 | 10.54 ± 10.04 | 0.54 | 23.05 ± 12.28 |  |  | 
NCC1(C(=O)N[C@@H](Cc2c[nH]cn2)C(=O)O)CCCCC1 [FLM-14-ACI] |  | 1.71 | 29.10 ± 2.97 | 1.36 | 58.03 ± 2.37 |  |  | 
NCC1(C(=O)N[C@H](CO)Cc2c[nH]cn2)CCCCC1 [FLM-14-OLO, (S)-1-(aminomethyl)-N-(1-hydroxy-3-(1H-imidazol-4-yl)propan-2-yl)cyclohexanecarboxamide] |  | 2.84 | 48.36 ± 6.22 | 1.96 | 83.50 ± 5.85 |  |  | 
